Laboratory results: publication PMC3234165 (Biochemistry, 2011)

Key:
HT-29 = assay: Multiplex cytotoxicity assay; type: cell-based; settings: Homo sapiens, HT-29, read-out: IC50 HT-29
SF-268 = assay: Multiplex cytotoxicity assay; type: cell-based; settings: Homo sapiens, SF-268, read-out: IC50 SF-268
A549 = assay: Multiplex cytotoxicity assay; type: cell-based; settings: Homo sapiens, A549, read-out: IC50 A549
[1] = target: T1, α-1A (α-adrenergic receptor subtype 1A) (Homo sapiens, UniProt P35348); assay: NIMH PDSP secondary binding assay
T1 sequence (P35348 1-466): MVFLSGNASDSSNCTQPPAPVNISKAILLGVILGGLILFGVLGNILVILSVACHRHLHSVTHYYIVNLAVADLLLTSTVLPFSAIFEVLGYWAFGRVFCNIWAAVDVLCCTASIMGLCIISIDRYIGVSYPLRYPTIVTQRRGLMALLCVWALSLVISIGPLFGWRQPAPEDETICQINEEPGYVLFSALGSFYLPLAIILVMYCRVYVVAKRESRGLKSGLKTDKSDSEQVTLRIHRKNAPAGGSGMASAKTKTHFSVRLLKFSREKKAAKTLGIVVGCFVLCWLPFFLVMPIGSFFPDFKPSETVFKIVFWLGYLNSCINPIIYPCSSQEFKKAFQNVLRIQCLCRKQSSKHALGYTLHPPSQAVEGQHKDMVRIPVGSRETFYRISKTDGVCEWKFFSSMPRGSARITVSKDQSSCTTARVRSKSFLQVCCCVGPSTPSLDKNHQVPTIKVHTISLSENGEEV

[2] = target: NET (norepinephrine transporter) (Homo sapiens, UniProt P23975); assay: NIMH PDSP secondary binding assay
MCF-7 = assay: Multiplex cytotoxicity assay; type: cell-based; settings: Homo sapiens, MCF7, read-out: IC50 MCF-7
[3] = target: SERT (serotonin transporter) (Homo sapiens, UniProt P31645); assay: NIMH PDSP secondary binding assay
Du145 = assay: Multiplex cytotoxicity assay; type: cell-based; settings: Homo sapiens, DU-145, read-out: IC50 Du145
[4] = target: 5HT2B (serotonin receptor subtype 2B) (Homo sapiens, UniProt P41595); assay: NIMH PDSP secondary binding assay
SK-OV-3 = assay: Multiplex cytotoxicity assay; type: cell-based; settings: Homo sapiens, SK-OV-3, read-out: IC50 SK-OV-3
MCF-10A = assay: Multiplex cytotoxicity assay; type: cell-based; settings: Homo sapiens, read-out: IC50 MCF-10A
[5] = target: D1 (dopamine receptor type 1) (Homo sapiens, UniProt P21728); assay: NIMH PDSP secondary binding assay
[6] = target: T2, 5HT1A (serotonin receptor subtype 1A) (Homo sapiens, UniProt P08908); assay: NIMH PDSP secondary binding assay; settings: KI 5HT1A, NIMH PDSP; [3H]8-OH-DPAT/0.5 nM
T2 sequence (P08908 1-422): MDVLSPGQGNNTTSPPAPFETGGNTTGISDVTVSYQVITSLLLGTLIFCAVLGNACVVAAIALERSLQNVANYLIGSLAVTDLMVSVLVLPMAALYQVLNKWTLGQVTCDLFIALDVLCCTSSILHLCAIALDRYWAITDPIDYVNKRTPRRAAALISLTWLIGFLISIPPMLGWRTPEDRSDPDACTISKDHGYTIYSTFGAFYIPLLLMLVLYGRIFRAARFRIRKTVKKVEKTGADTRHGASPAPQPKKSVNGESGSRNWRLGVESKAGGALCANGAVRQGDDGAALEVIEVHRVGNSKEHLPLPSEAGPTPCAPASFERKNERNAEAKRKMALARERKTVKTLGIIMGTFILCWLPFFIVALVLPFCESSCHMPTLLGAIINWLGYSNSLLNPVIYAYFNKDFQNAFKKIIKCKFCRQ

[7] = target: H1 (histamine receptor type 1) (Homo sapiens, UniProt P35367); assay: NIMH PDSP secondary binding assay
Sig-2R, sigma-2 receptor = target: T3, Sig-2R, sigma-2 receptor (Rattus norvegicus, UniProt Q5U3Y7); assay: NIMH PDSP secondary binding assay
T3 sequence (Q5U3Y7 1-176): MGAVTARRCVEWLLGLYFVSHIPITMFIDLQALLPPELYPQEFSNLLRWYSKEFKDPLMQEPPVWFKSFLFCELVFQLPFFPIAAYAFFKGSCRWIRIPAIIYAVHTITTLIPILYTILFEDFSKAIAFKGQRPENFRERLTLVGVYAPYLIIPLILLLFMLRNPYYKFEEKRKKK

[8] = target: 5HT7 (serotonin receptor subtype 7) (Homo sapiens, UniProt P34969); assay: NIMH PDSP secondary binding assay
[9] = target: β-3 (β-adrenergic receptor subtype 3) (Homo sapiens, UniProt P13945); assay: NIMH PDSP secondary binding assay
[10] = target: M1 (muscarinic acetylcholine receptor type 1) (Homo sapiens, UniProt P11229); assay: NIMH PDSP secondary binding assay
H1299 = assay: Multiplex cytotoxicity assay; type: cell-based; settings: Homo sapiens, NCI-H1299, read-out: IC50 H1299
MDA-MB-231 = assay: Multiplex cytotoxicity assay; type: cell-based; settings: Homo sapiens, MDA-MB-231, read-out: IC50 MDA-MB-231
[11] = target: H3 (histamine receptor type 3) (Homo sapiens, UniProt Q9Y5N1); assay: NIMH PDSP secondary binding assay
[12] = target: T4, sigma-2 receptor (sigma-2 sites) (Rattus norvegicus, UniProt Q5U3Y7); assay: Competitive displacement of [3H]-DTG binding, rat liver membranes; settings: for KI sigma-2 sites: rat liver membranes in the presence of 100 nM (+)-pentazocine, [3H]-DTG; for sigma-2/sigma-1: ratio from the KI value of sigma-1 and sigma-2 sites (membranes)
T4 sequence (Q5U3Y7 1-176): T3 sequence (Q5U3Y7 1-176)

caspases 3/7, 8, and 9 = assay: Caspase activation potential; type: cell-based; settings: data not shown
Sig-1R, sigma-1 receptor = Sig-1R, sigma-1 receptor (Rattus norvegicus, UniProt Q9R0C9); assay: NIMH PDSP secondary binding assay
[13] = target: β-2 (β-adrenergic receptor subtype 2) (Homo sapiens, UniProt P07550); assay: NIMH PDSP secondary binding assay
[14] = target: 5HT1B (serotonin receptor subtype 1B) (Homo sapiens, UniProt P28222); assay: NIMH PDSP secondary binding assay
5HT1B (serotonin receptor subtype 1B), sequence (P28222 whole entry, species assumed): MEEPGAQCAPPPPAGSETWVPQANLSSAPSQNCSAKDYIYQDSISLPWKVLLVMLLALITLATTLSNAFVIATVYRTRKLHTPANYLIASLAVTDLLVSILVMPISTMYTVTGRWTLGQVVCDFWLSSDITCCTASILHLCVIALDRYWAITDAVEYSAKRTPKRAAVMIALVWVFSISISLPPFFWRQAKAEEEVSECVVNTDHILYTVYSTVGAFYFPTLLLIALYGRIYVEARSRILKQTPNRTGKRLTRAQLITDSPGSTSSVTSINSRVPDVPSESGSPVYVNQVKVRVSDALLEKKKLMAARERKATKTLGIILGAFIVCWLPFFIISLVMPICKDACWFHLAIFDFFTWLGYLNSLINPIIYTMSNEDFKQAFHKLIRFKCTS

D1 (dopamine receptor type 1), sequence (P21728 whole entry): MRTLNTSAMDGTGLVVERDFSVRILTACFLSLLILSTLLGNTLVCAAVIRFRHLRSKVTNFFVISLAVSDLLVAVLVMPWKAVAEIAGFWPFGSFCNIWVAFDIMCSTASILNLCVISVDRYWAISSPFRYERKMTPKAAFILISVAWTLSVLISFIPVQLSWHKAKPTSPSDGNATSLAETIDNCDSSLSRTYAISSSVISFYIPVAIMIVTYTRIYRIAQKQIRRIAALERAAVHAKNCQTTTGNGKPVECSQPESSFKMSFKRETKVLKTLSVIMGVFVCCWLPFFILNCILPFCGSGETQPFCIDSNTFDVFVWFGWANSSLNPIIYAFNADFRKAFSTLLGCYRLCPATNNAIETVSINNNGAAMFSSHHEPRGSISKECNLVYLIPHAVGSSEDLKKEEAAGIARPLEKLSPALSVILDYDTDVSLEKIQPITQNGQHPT
SERT (serotonin transporter), sequence (P31645 whole entry, species assumed): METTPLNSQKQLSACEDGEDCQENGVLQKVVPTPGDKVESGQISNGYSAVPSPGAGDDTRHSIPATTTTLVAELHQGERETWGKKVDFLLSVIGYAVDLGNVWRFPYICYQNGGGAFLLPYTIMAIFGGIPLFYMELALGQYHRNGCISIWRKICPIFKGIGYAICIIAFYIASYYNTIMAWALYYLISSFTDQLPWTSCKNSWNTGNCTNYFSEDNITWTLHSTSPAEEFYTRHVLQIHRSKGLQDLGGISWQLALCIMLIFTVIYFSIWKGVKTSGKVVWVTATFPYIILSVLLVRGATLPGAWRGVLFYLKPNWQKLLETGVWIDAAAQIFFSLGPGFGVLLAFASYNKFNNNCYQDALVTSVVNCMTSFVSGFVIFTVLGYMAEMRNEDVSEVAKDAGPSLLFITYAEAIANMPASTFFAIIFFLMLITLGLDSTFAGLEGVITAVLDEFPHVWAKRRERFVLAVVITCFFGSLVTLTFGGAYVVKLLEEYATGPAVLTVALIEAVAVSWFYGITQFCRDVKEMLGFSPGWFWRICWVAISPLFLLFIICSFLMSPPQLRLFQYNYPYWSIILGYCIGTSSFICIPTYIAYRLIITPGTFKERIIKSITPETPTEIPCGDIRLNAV
5HT7 (serotonin receptor subtype 7), sequence (P34969 whole entry, species assumed): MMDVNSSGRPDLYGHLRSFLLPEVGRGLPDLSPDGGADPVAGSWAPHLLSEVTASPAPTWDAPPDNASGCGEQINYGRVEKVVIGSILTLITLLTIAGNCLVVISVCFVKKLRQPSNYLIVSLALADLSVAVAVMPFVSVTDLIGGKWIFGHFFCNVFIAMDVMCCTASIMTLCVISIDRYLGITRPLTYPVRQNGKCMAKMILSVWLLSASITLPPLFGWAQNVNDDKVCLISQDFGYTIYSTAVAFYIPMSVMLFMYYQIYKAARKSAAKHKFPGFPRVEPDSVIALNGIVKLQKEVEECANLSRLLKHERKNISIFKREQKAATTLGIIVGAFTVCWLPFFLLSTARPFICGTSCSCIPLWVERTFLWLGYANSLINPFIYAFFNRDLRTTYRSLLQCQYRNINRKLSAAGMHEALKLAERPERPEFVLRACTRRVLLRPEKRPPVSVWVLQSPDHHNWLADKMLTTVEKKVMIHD
NET (norepinephrine transporter), sequence (P23975 whole entry, species assumed): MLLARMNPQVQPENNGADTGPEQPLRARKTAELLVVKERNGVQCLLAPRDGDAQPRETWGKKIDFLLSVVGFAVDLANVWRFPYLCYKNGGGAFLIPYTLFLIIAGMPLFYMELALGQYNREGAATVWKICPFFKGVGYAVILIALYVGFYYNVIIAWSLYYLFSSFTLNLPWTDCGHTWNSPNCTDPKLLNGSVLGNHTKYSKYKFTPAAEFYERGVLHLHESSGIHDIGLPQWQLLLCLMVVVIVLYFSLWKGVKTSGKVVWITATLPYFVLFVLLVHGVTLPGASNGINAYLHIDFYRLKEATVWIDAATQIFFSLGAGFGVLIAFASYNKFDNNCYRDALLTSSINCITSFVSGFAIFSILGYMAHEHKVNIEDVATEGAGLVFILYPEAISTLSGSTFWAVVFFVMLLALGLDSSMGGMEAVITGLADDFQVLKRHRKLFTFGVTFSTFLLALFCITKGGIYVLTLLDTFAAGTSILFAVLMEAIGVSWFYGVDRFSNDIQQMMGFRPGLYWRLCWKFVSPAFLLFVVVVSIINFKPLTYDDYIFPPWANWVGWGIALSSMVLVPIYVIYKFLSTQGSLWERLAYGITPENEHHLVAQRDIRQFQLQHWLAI
β-3 (β-adrenergic receptor subtype 3), sequence (P13945 whole entry): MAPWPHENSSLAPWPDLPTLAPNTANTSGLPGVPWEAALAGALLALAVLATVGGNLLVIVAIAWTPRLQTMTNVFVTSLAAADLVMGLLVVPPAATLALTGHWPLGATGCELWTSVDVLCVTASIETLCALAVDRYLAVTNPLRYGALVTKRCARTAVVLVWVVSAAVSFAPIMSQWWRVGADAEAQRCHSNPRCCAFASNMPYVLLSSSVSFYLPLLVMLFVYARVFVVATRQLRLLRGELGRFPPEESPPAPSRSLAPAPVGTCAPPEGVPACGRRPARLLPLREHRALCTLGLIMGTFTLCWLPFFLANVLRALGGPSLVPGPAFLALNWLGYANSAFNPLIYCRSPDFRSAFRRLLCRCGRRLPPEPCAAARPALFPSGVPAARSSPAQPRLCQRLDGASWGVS
M1 (muscarinic acetylcholine receptor type 1), sequence (P11229 whole entry): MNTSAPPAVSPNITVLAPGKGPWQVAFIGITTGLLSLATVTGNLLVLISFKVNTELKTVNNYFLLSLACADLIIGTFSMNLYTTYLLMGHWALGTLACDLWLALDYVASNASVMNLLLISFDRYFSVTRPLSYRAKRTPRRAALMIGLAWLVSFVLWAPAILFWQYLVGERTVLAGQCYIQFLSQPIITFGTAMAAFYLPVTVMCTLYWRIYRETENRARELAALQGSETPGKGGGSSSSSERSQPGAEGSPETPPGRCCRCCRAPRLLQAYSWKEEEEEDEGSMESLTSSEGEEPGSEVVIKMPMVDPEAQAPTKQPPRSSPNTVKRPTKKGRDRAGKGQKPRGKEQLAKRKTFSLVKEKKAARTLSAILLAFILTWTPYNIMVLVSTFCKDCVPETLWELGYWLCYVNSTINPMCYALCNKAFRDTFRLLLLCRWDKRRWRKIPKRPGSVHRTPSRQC
H3 (histamine receptor type 3), sequence (Q9Y5N1 whole entry): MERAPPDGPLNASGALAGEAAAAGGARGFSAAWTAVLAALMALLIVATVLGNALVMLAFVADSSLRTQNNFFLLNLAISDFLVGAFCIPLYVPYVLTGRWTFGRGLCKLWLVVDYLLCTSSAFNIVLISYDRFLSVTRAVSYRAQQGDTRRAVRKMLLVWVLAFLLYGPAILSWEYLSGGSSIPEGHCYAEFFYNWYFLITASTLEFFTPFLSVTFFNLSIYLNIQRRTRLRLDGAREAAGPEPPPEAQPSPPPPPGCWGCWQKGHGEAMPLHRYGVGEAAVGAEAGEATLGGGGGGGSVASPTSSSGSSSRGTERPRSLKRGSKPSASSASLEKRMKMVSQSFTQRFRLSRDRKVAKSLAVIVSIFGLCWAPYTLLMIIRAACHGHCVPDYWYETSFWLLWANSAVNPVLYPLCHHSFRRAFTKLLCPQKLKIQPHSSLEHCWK
5HT2B (serotonin receptor subtype 2B), sequence (P41595 whole entry, species assumed): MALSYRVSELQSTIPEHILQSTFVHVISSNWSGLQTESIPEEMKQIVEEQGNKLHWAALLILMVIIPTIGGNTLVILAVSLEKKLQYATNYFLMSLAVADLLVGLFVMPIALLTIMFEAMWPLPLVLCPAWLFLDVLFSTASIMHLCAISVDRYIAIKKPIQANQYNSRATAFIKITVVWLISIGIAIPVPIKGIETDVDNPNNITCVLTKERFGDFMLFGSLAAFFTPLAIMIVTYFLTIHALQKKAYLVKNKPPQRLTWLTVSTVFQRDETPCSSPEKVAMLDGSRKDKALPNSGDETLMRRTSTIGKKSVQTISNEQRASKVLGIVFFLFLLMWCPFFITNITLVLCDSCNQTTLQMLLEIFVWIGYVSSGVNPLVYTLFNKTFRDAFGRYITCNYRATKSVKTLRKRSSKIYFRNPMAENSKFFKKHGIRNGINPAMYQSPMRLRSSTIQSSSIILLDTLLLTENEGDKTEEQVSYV
β-2 (β-adrenergic receptor subtype 2), sequence (P07550 whole entry): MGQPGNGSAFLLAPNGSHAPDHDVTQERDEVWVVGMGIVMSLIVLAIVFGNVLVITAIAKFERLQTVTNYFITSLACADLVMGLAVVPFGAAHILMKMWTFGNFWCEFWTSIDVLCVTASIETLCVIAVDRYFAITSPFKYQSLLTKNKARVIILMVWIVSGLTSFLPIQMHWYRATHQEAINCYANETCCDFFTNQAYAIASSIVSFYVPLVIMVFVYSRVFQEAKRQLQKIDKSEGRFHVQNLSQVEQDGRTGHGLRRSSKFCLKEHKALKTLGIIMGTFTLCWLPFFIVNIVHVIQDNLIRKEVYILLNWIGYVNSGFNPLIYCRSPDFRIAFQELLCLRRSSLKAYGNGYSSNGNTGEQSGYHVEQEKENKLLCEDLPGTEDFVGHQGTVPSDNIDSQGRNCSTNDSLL

SMILES | IC50 (HT-29) [µM] | IC50 (SF-268) [µM] | IC50 (A549) [µM] | Ki [1] [µM] | Ki [2] [µM] | IC50 (MCF-7) [µM] | Ki [3] [µM] | IC50 (Du145) [µM] | Ki [4] [µM] | IC50 (SK-OV-3) [µM] | IC50 (MCF-10A) [µM] | Ki [5] [µM] | Ki [6] [µM] | Ki [7] [µM] | Ki (Sig-2R, sigma-2 receptor) [µM] | Ki [8] [µM] | Ki [9] [µM] | Ki [10] [µM] | IC50 (H1299) [µM] | IC50 (MDA-MB-231) [µM] | also measured
CCCCCCCNCCCc1ccccc1 [2a, N-(3-Phenylpropyl)heptan-1-amine] | 40 ± 1 | 63 ± 2 | 83 ± 11 | > 10 | > 10 | 20 ± 1 | > 10 | 25 ± 1 | > 10 | > 100 | 70 ± 5 | > 10 | 0.13 | > 10 | 0.25 | > 10 | > 10 | > 10 | 39 ± 6 | 33 ± 2 | Ki [11]: > 10 µM; KI sigma-2 sites [12]: nanomolar affinities; sigma-2/sigma-1 [12]: 2; activation of caspases 3/7, 8, and 9 (caspases 3/7, 8, and 9): did not activate; Ki (Sig-1R, sigma-1 receptor): 0.09 µM; Ki [13]: > 10 µM; Ki [14]: > 10 µM
CCCCCCCCCCCCNCCCc1ccccc1 [3a, N-(3-Phenylpropyl)dodecan-1-amine] | 42 ± 21 | 60 ± 14 | 87 ± 70 | > 10 | > 10 | 50 ± 18 | > 10 | 51 ± 4 | > 10 | 60 ± 7 | 53 ± 18 | > 10 | > 10 | > 10 | 3.6 | > 10 | > 10 | > 10 | 39 ± 0.1 | 54 ± 3 | Ki [11]: > 10 µM; KI sigma-2 sites [12]: micromolar affinities; sigma-2/sigma-1 [12]: 0.4; activation of caspases 3/7, 8, and 9 (caspases 3/7, 8, and 9): did not activate; Ki (Sig-1R, sigma-1 receptor): 1.5 µM; Ki [13]: > 10 µM; Ki [14]: > 10 µM
CCCCCCCCCCCCNCCCc1ccc([N+](=O)[O-])cc1 [3b, N-(3-(4-Nitrophenyl)propyl)dodecan-1-amine] | 14 ± 0.2 | 16 ± 1 | 29 ± 1 | > 10 | > 10 | 12 ± 1 | 0.7 | 17 ± 0.4 | 7.9 | 16 ± 1 | 15 ± 1 | > 10 | 0.04 | > 10 | 0.27 | > 10 | > 10 | > 10 | 13 ± 1 | 15 ± 1 | Ki [11]: > 10 µM; KI sigma-2 sites [12]: micromolar affinities; sigma-2/sigma-1 [12]: 0.5; activation of caspases 3/7, 8, and 9 (caspases 3/7, 8, and 9): did not activate; Ki (Sig-1R, sigma-1 receptor): 0.2 µM; Ki [13]: > 10 µM; Ki [14]: > 10 µM
